Calls of active or inactive are those of the source. Cut-off read from the data, not from the text of the source, for most assays here: actives have a measured Kd and inactives only a lower limit.
Tests used:
[1] = target: T1, Tyrosine-protein kinase Tec (Homo sapiens, UniProt P42680)
T1 sequence (P42680 whole entry): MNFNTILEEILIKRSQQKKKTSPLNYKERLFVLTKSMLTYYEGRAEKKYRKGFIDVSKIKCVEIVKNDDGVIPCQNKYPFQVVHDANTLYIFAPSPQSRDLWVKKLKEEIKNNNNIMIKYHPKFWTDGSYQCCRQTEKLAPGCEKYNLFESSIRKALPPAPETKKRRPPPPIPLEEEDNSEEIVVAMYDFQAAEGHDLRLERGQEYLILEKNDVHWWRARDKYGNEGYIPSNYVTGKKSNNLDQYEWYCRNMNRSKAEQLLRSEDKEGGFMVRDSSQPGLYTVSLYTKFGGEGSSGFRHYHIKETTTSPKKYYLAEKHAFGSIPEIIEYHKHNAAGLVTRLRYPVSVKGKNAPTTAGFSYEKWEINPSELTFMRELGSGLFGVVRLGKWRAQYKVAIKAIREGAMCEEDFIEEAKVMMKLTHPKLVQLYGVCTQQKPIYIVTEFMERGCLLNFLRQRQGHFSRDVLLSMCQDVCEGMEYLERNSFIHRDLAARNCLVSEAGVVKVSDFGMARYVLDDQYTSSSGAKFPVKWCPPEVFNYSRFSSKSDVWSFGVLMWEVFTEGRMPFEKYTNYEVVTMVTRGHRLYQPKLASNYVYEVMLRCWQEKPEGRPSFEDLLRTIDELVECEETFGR

[2] = target: Casein kinase II subunit alpha' (Homo sapiens, UniProt P19784)
[3] = target: Cyclin-dependent kinase 5 (Homo sapiens, UniProt Q00535)
Wee1-like protein kinase = Wee1-like protein kinase (Homo sapiens, UniProt P30291)
Glycine--tRNA ligase = target: T2, Glycine--tRNA ligase (Homo sapiens, UniProt P41250)
T2 sequence (P41250 whole entry): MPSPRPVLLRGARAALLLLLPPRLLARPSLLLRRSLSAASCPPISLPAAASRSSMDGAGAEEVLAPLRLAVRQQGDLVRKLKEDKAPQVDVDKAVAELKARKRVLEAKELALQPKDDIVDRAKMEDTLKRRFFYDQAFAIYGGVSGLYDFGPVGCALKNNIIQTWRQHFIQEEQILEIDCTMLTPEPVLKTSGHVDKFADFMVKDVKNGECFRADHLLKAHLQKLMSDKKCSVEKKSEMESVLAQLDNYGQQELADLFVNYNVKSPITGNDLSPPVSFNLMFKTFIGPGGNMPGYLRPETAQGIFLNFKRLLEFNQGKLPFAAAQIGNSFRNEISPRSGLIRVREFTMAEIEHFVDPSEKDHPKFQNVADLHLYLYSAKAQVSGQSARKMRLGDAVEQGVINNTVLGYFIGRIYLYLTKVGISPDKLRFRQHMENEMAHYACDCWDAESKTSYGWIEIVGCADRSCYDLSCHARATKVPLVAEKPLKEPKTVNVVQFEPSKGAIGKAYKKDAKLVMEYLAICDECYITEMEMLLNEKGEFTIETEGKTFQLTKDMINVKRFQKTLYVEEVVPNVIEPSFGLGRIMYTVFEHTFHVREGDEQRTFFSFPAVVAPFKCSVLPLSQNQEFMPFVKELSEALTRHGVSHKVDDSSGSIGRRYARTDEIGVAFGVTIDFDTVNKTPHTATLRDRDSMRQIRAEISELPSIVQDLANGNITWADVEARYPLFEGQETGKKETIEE

[4] = target: T3, Serine/threonine-protein kinase D3 (Homo sapiens, UniProt O94806)
T3 sequence (O94806 whole entry): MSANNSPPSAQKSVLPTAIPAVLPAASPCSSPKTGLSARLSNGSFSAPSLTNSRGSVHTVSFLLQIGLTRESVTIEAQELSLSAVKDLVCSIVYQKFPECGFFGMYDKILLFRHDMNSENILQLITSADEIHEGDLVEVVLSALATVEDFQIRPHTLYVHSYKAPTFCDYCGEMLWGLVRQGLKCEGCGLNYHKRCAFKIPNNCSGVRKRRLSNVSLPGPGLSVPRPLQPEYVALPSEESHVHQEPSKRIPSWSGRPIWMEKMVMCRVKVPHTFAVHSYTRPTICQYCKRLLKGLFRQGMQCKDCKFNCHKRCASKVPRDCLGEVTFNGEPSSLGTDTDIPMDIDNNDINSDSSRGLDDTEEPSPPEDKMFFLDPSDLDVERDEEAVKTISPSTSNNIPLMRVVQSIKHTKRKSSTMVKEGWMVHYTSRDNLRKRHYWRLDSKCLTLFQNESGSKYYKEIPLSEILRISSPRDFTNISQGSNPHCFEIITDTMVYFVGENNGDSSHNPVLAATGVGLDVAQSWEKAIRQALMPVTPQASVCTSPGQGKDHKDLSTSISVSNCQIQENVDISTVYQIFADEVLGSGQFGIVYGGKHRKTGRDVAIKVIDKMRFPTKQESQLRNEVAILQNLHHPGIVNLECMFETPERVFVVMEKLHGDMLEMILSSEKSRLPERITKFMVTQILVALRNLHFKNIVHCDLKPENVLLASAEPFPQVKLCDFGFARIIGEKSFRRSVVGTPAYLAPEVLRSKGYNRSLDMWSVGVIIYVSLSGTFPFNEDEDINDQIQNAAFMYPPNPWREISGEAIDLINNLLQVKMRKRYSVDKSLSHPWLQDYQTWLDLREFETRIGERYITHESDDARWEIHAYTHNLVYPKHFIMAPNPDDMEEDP

[5] = target: T4, Succinate--CoA ligase [ADP-forming] subunit beta, mitochondrial (Homo sapiens, UniProt Q9P2R7)
T4 sequence (Q9P2R7 whole entry): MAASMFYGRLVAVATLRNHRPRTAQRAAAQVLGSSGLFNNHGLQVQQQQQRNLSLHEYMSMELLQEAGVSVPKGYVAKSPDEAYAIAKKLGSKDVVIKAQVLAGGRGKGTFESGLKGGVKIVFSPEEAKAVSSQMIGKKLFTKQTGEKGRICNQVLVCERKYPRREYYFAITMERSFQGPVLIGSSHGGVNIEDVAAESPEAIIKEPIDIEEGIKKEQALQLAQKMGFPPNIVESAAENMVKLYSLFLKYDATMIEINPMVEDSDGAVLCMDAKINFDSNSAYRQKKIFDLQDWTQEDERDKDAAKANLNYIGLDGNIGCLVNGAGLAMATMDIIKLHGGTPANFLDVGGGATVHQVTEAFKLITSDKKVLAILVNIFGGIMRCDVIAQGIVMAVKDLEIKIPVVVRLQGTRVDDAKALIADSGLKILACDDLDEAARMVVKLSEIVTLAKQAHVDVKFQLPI
Note: in the data inactive means no Kd found up to 30 µM.

Casein kinase II subunit alpha', sequence (P19784 whole entry): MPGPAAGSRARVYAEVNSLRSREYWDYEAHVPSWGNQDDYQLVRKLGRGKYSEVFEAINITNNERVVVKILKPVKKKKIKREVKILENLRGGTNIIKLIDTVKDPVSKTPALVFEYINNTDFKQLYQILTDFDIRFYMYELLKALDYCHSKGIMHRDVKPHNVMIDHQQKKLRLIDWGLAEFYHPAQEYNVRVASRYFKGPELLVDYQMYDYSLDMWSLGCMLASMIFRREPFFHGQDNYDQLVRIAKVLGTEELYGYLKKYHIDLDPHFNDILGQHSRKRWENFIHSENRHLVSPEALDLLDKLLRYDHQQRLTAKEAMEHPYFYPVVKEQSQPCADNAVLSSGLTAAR
Wee1-like protein kinase, sequence (P30291 whole entry): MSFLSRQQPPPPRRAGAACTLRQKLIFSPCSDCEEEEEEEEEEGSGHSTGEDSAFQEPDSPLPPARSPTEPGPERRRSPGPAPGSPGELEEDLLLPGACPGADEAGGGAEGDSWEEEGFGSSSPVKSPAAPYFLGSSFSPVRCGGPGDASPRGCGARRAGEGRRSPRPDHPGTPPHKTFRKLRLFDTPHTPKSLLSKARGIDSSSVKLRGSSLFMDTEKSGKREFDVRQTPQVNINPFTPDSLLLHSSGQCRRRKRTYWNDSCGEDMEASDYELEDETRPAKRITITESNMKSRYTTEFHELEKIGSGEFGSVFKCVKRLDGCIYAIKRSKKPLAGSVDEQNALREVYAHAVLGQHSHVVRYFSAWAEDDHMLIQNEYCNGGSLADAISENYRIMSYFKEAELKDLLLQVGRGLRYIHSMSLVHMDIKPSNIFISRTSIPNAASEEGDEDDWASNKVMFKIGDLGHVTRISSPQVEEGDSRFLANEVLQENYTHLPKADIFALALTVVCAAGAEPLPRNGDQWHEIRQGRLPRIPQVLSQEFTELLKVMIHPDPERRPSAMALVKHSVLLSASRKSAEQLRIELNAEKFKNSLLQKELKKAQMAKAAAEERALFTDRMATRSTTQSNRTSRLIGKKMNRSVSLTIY
Cyclin-dependent kinase 5, sequence (Q00535 whole entry): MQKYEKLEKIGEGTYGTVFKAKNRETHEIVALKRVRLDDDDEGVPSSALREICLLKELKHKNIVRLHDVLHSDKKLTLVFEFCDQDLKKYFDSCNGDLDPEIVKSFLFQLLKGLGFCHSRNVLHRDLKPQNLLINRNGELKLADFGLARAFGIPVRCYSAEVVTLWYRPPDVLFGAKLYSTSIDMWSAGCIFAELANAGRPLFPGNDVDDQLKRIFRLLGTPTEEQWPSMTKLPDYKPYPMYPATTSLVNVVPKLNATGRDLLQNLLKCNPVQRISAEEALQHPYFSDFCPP

| Kd [1] | Kd [2] | Kd [3] | Kd (Wee1-like protein kinase) | Kd (Glycine--tRNA ligase) | Kd [4] | Kd [5] | Structure (SMILES) |
| --- | --- | --- | --- | --- | --- | --- | --- |
| > 30 µM (inactive) | 0.022 µM (active) | > 30 µM (inactive) | > 30 µM (inactive) | > 30 µM (inactive) | > 30 µM (inactive) | > 30 µM (inactive) | O=c1[nH]c([C@@H]2CCCN2)nc2c1oc1ccc(Cl)cc12 |
| > 30 µM (inactive) | 3.23 µM (active) | > 30 µM (inactive) | > 30 µM (inactive) | > 30 µM (inactive) | > 30 µM (inactive) | > 30 µM (inactive) | CC[C@@](C)(Nc1ccnc(-c2c[nH]c3ncccc23)n1)C(=O)NCC(F)(F)F [DECERNOTINIB] |
| > 30 µM (inactive) | > 30 µM (inactive) | > 30 µM (inactive) | > 30 µM (inactive) | > 30 µM (inactive) | > 30 µM (inactive) | > 30 µM (inactive) | CCc1cc2c(cc1N1CCC(N3CCOCC3)CC1)C(C)(C)c1[nH]c3cc(C#N)ccc3c1C2=O [ALECTINIB] |
| > 30 µM (inactive) | > 30 µM (inactive) | > 30 µM (inactive) | > 30 µM (inactive) | > 30 µM (inactive) | > 30 µM (inactive) | > 30 µM (inactive) | COc1cc2ncnc(Nc3ccc(F)c(Cl)c3)c2cc1NC(=O)/C=C/CN1CCCCC1 [DACOMITINIB ANHYDROUS] |
| > 30 µM (inactive) | > 30 µM (inactive) | > 30 µM (inactive) | > 30 µM (inactive) | > 30 µM (inactive) | > 30 µM (inactive) | > 30 µM (inactive) | C#Cc1cccc(Nc2ncnc3cc4c(cc23)OCCOCCOCCO4)c1 [ICOTINIB] |
| > 30 µM (inactive) | > 30 µM (inactive) | > 30 µM (inactive) | > 30 µM (inactive) | > 30 µM (inactive) | > 30 µM (inactive) | > 30 µM (inactive) | COc1ccc2c(OCc3nnc4ccc(-c5ccccc5)nn34)ccnc2c1 [AMG-208] |
| > 30 µM (inactive) | > 30 µM (inactive) | > 30 µM (inactive) | > 30 µM (inactive) | > 30 µM (inactive) | > 30 µM (inactive) | > 30 µM (inactive) | CNC(=O)c1cccc(-c2ccc3c(N4CCOC[C@@H]4C)nc(N4CCOC[C@@H]4C)nc3n2)c1 [VISTUSERTIB] |
| > 30 µM (inactive) | > 30 µM (inactive) | > 30 µM (inactive) | > 30 µM (inactive) | > 30 µM (inactive) | > 30 µM (inactive) | > 30 µM (inactive) | COc1cc2ncnc3c2cc1OCCCCCN(C)Cc1ccc(Br)cc1N3 [JNJ-26483327] |
| > 30 µM (inactive) | > 30 µM (inactive) | > 30 µM (inactive) | > 30 µM (inactive) | > 30 µM (inactive) | > 30 µM (inactive) | > 30 µM (inactive) | COc1cc2nccc(Oc3ccc(NC(=O)C4(C(=O)Nc5ccc(F)cc5)CC4)cc3)c2cc1OC [CABOZANTINIB] |
| > 30 µM (inactive) | > 30 µM (inactive) | > 30 µM (inactive) | > 30 µM (inactive) | > 30 µM (inactive) | > 30 µM (inactive) | > 30 µM (inactive) | Cn1c(=O)c(F)c(Nc2ccc(I)cc2F)c2c(=O)n(C[C@@H](O)CO)cnc21 [TAK-733] |

| Structure (SMILES) | Kd [1] | Kd [2] | Kd [3] | Kd (Wee1-like protein kinase) | Kd (Glycine--tRNA ligase) | Kd [4] | Kd [5] |
| --- | --- | --- | --- | --- | --- | --- | --- |
| COc1cc(F)c(F)c(Nc2ccc(I)cc2F)c1NS(=O)(=O)C1(C[C@H](O)CO)CC1 [REFAMETINIB] | > 30 µM (inactive) | > 30 µM (inactive) | > 30 µM (inactive) | > 30 µM (inactive) | > 30 µM (inactive) | > 30 µM (inactive) | > 30 µM (inactive) |
| CC(C)CC(=O)Nc1[nH]nc2c1CN(C(=O)C1CCN(C)CC1)C2(C)C [PHA-793887] | > 30 µM (inactive) | > 30 µM (inactive) | 0.135 µM (active) | > 30 µM (inactive) | > 30 µM (inactive) | 0.065 µM (active) | > 30 µM (inactive) |
| Cc1c(NC(=O)OC[C@@H]2COCCN2)cn2ncnc(Nc3ccc4c(cnn4Cc4cccc(F)c4)c3)c12 [AC-480] | > 30 µM (inactive) | > 30 µM (inactive) | > 30 µM (inactive) | > 30 µM (inactive) | > 30 µM (inactive) | > 30 µM (inactive) | > 30 µM (inactive) |
| COCCN1CCN(Cc2ccc(-c3n[nH]c4c3C(=O)c3c(NC(=O)NN5CCOCC5)cccc3-4)cc2)CC1 [RGB-286638] | > 30 µM (inactive) | 0.008 µM (active) | 0.318 µM (active) | > 30 µM (inactive) | > 30 µM (inactive) | 0.297 µM (active) | > 30 µM (inactive) |
| Cc1c(Cn2c(C)nc3c(C(=O)O)cc(N4CCOCC4)cc32)cccc1C(F)(F)F [GSK-2636771] | > 30 µM (inactive) | > 30 µM (inactive) | > 30 µM (inactive) | > 30 µM (inactive) | > 30 µM (inactive) | > 30 µM (inactive) | > 30 µM (inactive) |
| NC[C@@](O)(c1ccc(Cl)cc1)c1ccc(-c2cn[nH]c2)cc1 [AT-13148] | > 30 µM (inactive) | > 30 µM (inactive) | > 30 µM (inactive) | > 30 µM (inactive) | > 30 µM (inactive) | > 30 µM (inactive) | > 30 µM (inactive) |
| C=CCN(/C=C1/C(=O)O[C@H](COC)[C@@]2(C)C1=C(O)C(=O)C1=C2[C@H](OC(C)=O)C[C@]2(C)C(=O)CC[C@@H]12)CC=C [SONOLISIB] | > 30 µM (inactive) | > 30 µM (inactive) | > 30 µM (inactive) | > 30 µM (inactive) | > 30 µM (inactive) | > 30 µM (inactive) | > 30 µM (inactive) |
| CCc1nc(C(N)=O)c(Nc2ccc(N3CCC(N4CCN(C)CC4)CC3)c(OC)c2)nc1NC1CCOCC1 [GILTERITINIB] | > 30 µM (inactive) | 0.96 µM (active) | > 30 µM (inactive) | > 30 µM (inactive) | > 30 µM (inactive) | > 30 µM (inactive) | > 30 µM (inactive) |

Source: ChEMBL document CHEMBL3991601, “The target landscape of clinical kinase drugs” (Science, 2017)
